Experimental findings from article PMC12663734, “Sulfonamine-containing aurone derivatives act as inhibitors of intercellular movement of potato virus Y” (iScience, 2025) are described below.

Each structure is given as a SMILES string. Converted amounts (≈) assume the structure as drawn.

The Kd is a measure of binding affinity in units of concentration. Low readings indicate tighter binding, high ones weaker binding. One may read the EC50 as the concentration needed to bring the measured effect to its halfway point.

The test system of test [1] is PVY. Put plainly: Anti-PVY protective activity, half-leaf method. The following applies: Potato virus Y, in Chenopodium amaranticolor, 120 h, read-out: Protective effect (%).
Experimental: (§1) Owing to its non-host resistance to PVY, Chenopodium amaranticolor develops a hypersensitive response (HR) within 48–72 hours post-inoculation, producing sharply delimited chlorotic or necrotic local lesions on the inoculated leaves. The number of lesions correlates linearly and positively with virus titre, thereby serving as a quantitative indicator of viral virulence and of the inactivating efficacy of test compounds. The PVY viral extract was rubbed onto the surface of Nicotiana tabacum K326 leaves. After the characteristic symptoms of leaf wrinkling and inward curling appeared, the leaves were harvested and stored at -80°C, then purified according to previously reported methods.[50]^,[51]^,[52] Host leaves were ground to a fine powder in liquid nitrogen, followed by homogenization on ice in 0.5 M phosphate buffer. An equal volume of chloroform:n-butanol (1:1, v/v) corresponding to 10% of the total buffer volume was added, and the mixture was further homogenized on ice. After centrifugation at 10,000g for 20 minutes (4°C), the supernatant was collected as the crude PVY extract. Using 4–5-leaf-stage Chenopodium amaranticolor maintained under optimal growth conditions, a bioassay was conducted with two plants per treatment to systematically evaluate the curative, protective, and inactivating efficacy of the target compound against PVY.[53] […] Each compound was evaluated in three replicates, and the average value was calculated.
In contrast to the antiviral therapeutic activity, the leaves were first treated with the drug solution. A 500 μg/mL drug solution was applied to the right side of the leaves, with the left side serving as a control and treated with a 1% Tween 80 solution. After the leaves had dried under natural conditions, they were placed in a greenhouse for 24 hours before inoculation by rubbing with carborundum, following the same procedures as those for curative activity. After treatment, the plants were maintained in a greenhouse, and the number of local lesions on the inoculated leaves was recorded approximately 5 days.
Test [2] relates to PVY. Put plainly: Anti-PVY curative activity, half-leaf method. The note with it: Potato virus Y, in Chenopodium amaranticolor, 120 h, read-out: Curative effect (%).
Experimental: as §1
Chenopodium amaranticolor was selected as the dead spot host. Excess leaves were first trimmed off, and a uniform layer of carborundum was applied to the leaf surface. The leaves were then inoculated by rubbing with a 1200-fold diluted virus solution. After more than an hour, the carborundum on the leaf surface was washed off with running water, and a 500 μg/mL drug solution was prepared. […] The treated plants were cultivated in a greenhouse for observation, and the number of dead spots on the leaves was counted after approximately 5 days.
Another test deals with T1, PVY CP^P154A (Potato virus Y, UniProt P18247, P2950A).
T1 construct: 6xHis tag (within the N-terminal pET-32a(+) fusion leader; the Trx and S-tag parts are inferred from the vector and the ~50 kDa band) (N, cleaved yes); made in house; host or cells: Escherichia coli BL21 (DE3) pLysS
T1 sequence (P18247 2797-3063 P2950A): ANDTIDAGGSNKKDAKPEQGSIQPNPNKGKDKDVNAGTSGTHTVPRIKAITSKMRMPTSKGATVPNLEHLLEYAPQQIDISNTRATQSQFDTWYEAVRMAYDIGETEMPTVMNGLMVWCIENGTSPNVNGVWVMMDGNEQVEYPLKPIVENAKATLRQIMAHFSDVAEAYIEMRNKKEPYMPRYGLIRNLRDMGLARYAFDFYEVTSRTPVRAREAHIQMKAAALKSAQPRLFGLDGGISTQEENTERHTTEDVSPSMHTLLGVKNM
Put plainly: MST binding to mutant PVY CP^P154A.

The next test concerns the target T2, PVY CP (Potato virus Y, UniProt P18247).
T2 construct: 6xHis tag (within the N-terminal pET-32a(+) fusion leader; the Trx and S-tag parts are inferred from the vector and the ~50 kDa band) (N, cleaved yes); made in house; host or cells: Escherichia coli BL21 (DE3) pLysS
Briefly: biochemical. It counts as binding.

For test [3], the system named is PVY. Briefly: Anti-PVY inactivating activity, half-leaf method. The following applies: for pest or weed control at 500 µg/mL / EC50: Potato virus Y, in Chenopodium amaranticolor; for pest or weed control at 500 µg/mL: 120 h, read-out: Inactivating effect (%), 500 μg/mL; for EC50: read-out: Inactivating effect EC50.
Experimental: as §1
Two different dilutions of the virus solution (600-fold and 1200-fold) were prepared, along with a 1000 μg/mL drug solution. The drug solution was mixed with the 600-fold diluted virus solution on ice and incubated for 30 minutes. During the incubation period, the left side of the leaves was treated with a 1200-fold diluted virus solution. After the incubation was completed, the mixed system of drug and virus is inoculated on the right side of the leaf. After waiting for the infection to be completed, the carborundum on the leaf surface was washed off with running water, and the plants were then cultivated in a greenhouse. The number of dead spots on the leaves was counted after approximately 5 days.
For another test, the system named is PVY-GFP. Put plainly: Systemic infection of PVY-GFP in N. benthamiana (GFP fluorescence, RT-qPCR). The following applies: 500 μg/mL, seven dpi. It counts as in vivo, potato virus Y. On the procedure:
To investigate the effect of compound D13 on PVY system infection, we inoculated Nicotiana benthamiana (N. benthamiana) leaves with Agrobacterium carrying the wild-type PVY-GFP. After 24 h, the infiltrated leaves were treated with dimethyl sulfoxide (DMSO) as the negative control group and 500 μg/mL D13 as the treatment group. […] To further confirm reproducibility, an additional independent biological replicate (Figure S4) was uploaded, and the observed trend is consistent with the primary dataset.
Wild-type or mutant viral plasmids were introduced into agrobacterium tumefaciens strain GV3101. Bacterial cultures were grown overnight at 28°C with shaking at 220 rpm, harvested by centrifugation at 8 minutes when OD600 reached 0.6–0.8, and the supernatant was discarded. […] At 7 dpi, GFP fluorescence in leaves was visualized and photographed under 365 nm excitation using a LUYOR handheld UV lamp (LUYOR-3415RG, Luyor Instrument, Shanghai, China). […]
The samples of N. benthamiana infected with Agrobacterium were taken out from the -80°C freezer, small steel beads were added, and they were ground into fine powder with liquid nitrogen to ensure that the cells were completely broken and the nucleic acid components in the cells were released. […] The primers used is recorded in Supporting Information.
On the technique in general: Quantitative PCR measures a nucleic acid by following its amplification.

Where [4] appears, read: host Chenopodium amaranticolor, average of three replicates.

T2 sequence (P18247 2797-3063): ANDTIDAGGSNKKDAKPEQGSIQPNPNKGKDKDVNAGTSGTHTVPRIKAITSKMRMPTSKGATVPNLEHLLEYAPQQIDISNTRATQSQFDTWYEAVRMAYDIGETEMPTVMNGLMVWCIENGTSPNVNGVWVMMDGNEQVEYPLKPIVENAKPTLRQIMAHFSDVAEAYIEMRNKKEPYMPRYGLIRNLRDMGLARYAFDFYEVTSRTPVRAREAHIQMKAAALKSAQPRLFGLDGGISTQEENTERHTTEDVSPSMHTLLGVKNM

Take `NC(=O)c1ncn([C@@H]2O[C@H](CO)[C@@H](O)[C@H]2O)n1` [RBV, ribavirin, reference compound]: the results for the pest or weed control at 500 µg/mL with PVY [1], in the test on PVY [2] and in the test with PVY [3] (setting [4]) were 44.2 ± 3.1%, 41.9 ± 2.7% and 59.3%, respectively. Also, the results for the Kd on PVY CP^P154A and at PVY CP were 210 ± 59.3 µM and 50.5 µM, respectively. The “Inactivating effect (%)” value with PVY [3] (500 μg/mL, host Chenopodium amaranticolor, average of three replicates) came to 59.3 ± 3.8%. The EC50 in the test on PVY [3] stood at 213 ± 15.4 µg/mL (≈ 873 µM).

Consider `COc1ccc(/C=C2\Oc3cc(OCC(=O)NS(=O)(=O)c4ccc(Br)cc4)ccc3C2=O)cc1` [D13, (Z)-N-((4-bromophenyl)sulfonyl)-2-((2-(4-methoxybenzylidene)-3-oxo-2,3-dihydrobenzofuran-6-yl)oxy)acetamide], for which the pest or weed control at 500 µg/mL was 47.7 ± 1.4% in the test with PVY [1], 53.2 ± 1.6% with PVY [2] and 60 to 80% in the test with PVY [3] (setting [4]). Further, the “accumulation level of PVY RNA in systemic leaves vs DMSO control (100%)” value in the test on PVY-GFP (RT-qPCR) is 39.8%. The “green fluorescence in stems and young top leaves” value in the test on PVY-GFP (UV illumination) is “almost unobservable”. Besides, the Kd is 284 µM at PVY CP^P154A and 16 µM at PVY CP. Moreover, in the test with PVY [3], the EC50 was determined as 79.5 ± 3.3 µg/mL (≈ 146 µM).
